Assay results from ChEMBL document CHEMBL1156033, “Discovery of the imidazo[1,5-a][1,2,4]-triazolo[1,5-d][1,4]benzodiazepine scaffold as a novel, potent and selective GABA(A) alpha5 inverse agonist series” (Bioorg Med Chem Lett, 2009).
Values after ≈ are worked out from the molar mass of the structure shown. Active and inactive are the calls of the source. The rule behind the calls is not given here.

Legend:
[1] = target: T1, GABA-A receptor; alpha-5/beta-3/gamma-2 (Homo sapiens, UniProt P18507+P28472+P31644)
T1 sequence (P18507 whole entry): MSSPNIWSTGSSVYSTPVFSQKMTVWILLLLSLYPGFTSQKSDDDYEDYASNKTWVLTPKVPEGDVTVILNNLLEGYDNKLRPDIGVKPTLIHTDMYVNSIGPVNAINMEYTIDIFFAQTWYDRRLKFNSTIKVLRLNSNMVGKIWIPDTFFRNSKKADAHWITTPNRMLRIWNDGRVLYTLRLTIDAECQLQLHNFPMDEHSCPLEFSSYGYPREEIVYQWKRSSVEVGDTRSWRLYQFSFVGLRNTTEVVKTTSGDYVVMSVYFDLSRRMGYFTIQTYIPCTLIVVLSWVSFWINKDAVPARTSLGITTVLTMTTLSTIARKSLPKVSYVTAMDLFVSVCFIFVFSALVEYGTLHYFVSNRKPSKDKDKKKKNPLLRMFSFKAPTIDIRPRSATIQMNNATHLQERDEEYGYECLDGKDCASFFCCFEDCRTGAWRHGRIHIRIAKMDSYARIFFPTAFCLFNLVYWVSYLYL
T1 sequence (P28472 whole entry): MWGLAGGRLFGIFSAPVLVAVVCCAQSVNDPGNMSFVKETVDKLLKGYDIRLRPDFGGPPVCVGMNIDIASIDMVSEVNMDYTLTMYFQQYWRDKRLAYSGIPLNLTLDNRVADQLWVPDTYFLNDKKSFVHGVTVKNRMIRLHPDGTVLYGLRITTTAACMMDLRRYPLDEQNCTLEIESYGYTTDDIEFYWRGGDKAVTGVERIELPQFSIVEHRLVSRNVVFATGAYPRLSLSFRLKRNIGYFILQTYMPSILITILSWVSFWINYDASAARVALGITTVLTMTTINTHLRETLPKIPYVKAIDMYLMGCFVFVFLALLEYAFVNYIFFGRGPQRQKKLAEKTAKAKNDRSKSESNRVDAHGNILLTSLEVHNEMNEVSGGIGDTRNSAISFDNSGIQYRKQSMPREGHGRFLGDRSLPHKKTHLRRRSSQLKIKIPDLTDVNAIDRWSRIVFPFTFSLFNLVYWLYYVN
T1 sequence (P31644 whole entry): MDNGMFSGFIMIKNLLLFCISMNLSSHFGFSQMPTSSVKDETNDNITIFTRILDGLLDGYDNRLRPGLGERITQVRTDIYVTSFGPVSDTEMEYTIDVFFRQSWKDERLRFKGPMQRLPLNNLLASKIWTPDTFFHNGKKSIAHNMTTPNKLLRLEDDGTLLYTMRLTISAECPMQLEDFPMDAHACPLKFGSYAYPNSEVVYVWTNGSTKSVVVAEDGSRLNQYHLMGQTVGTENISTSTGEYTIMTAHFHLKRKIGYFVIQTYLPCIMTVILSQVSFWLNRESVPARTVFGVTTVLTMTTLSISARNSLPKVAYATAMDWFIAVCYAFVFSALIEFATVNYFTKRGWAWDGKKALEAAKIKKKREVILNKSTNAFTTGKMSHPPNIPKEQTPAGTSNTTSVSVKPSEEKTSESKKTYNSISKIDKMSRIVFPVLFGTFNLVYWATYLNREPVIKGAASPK
Description: Binding affinity to GABAA alpha-5-beta-3-gamma-2 receptor

Liver microsomes [2] = conditions: human
Description: Clearance in human liver microsomes

in vitro = conditions: PAMPA
Description: Membrane permeability by PAMPA

physchem [3] = conditions: buffer, pH 7.4
Description: Lipophilicity, log Dof the compound at pH 7.4

physchem [4] = test: physchem
Rattus norvegicus [5] = test: Inhibition of scopolamine-induced cognitive deficit in Wistar rat at 100 mg/kg, ip by passive avoidance test; assay type: functional, organism-based; design: dose 100 mg/kg
Rattus norvegicus [6] = test: Inhibition of scopolamine-induced cognitive deficit in Wistar rat at 3 mg/kg, ip by passive avoidance test; assay type: functional, organism-based; design: dose 3 mg/kg
Liver microsomes [7] = conditions: rat
Description: Clearance in rat liver microsomes

Row | SMILES | Ki [1] [nM] | further results
1 | CCOC(=O)c1ncn2c1Cc1cnc(C(C)C)nc1-c1ccccc1-2 | 8.9 | –
2 | Cc1ncn2c1Cn1nccc1-c1ccccc1-2 | 3 | –
3 | CCOC(=O)c1ncn2c1Cc1cnc(Cc3ccc(OC)cc3)nc1-c1ccccc1-2 | 12.5 | –
4 | CCOc1ncn2c1Cn1nccc1-c1ccccc1-2 | 0.2 | –
5 | CCOC(=O)c1ncn2c1Cc1cncnc1-c1cc(Br)ccc1-2 | 20.2 | –
6 | C#Cc1ccc2c(c1)-c1ncnn1Cc1c(C(=O)OCC)ncn1-2 | 0.6 | –
7 | CCOC(=O)c1ncn2c1Cc1cncnc1-c1ccccc1-2 | 3.7 | –
8 | CCOC(=O)c1ncn2c1Cn1ncnc1-c1cc(C3CC3)ccc1-2 | 0.6 | –
9 | CCOC(=O)c1ncn2c1Cn1ncnc1-c1cc(OC(F)(F)F)ccc1-2 | 0.8 | –
10 | C#Cc1ccc2c(c1)-c1nc(C)ncc1Cc1c(C(=O)OCC)ncn1-2 | 8.1 | CL (Liver microsomes [2]): 8000 µL/min/mg; Papp (in vitro): 2.78 ×10⁻⁶ cm/s; logD (physchem [3]): 2.68; solubility (physchem [4]): 10 µg/mL (≈ 29 µM)
11 | CCOC(=O)c1ncn2c1Cc1cnc(C3CC3)nc1-c1ccccc1-2 | 7.6 | –
12 | C#Cc1ccc2c(c1)-c1nncn1Cc1c(C(=O)OCC)ncn1-2 | 2.3 | –
13 | CCOC(=O)c1ncn2c1Cc1cnc(C(C)C)nc1-c1cc(F)ccc1-2 | 11.2 | –
14 | Cc1ncc2c(n1)-c1ccccc1-n1cnc(Cl)c1C2 | 15.6 | –
15 | CCCc1ncc2c(n1)-c1cc(F)ccc1-n1cnc(C(=O)OCC)c1C2 | 8 | –
16 | CCOC(=O)c1ncn2c1Cc1cnc(C)nc1-c1cc(Br)ccc1-2 | 12.5 | CL (Liver microsomes [2]): 4000 µL/min/mg; inhibition (Rattus norvegicus [5]): Active; Papp (in vitro): 3.6 ×10⁻⁶ cm/s; logD (physchem [3]): 2.68; solubility (physchem [4]): 20 µg/mL (≈ 50.1 µM)
17 | CCOC(=O)c1ncn2c1Cn1c(C)nnc1-c1cc(OC)ccc1-2 | 14.5 | –
18 | CCOC(=O)c1ncn2c1Cn1c(Cc3ccccc3)nnc1-c1cc(OC)ccc1-2 | 22.9 | –
19 | CCOC(=O)c1ncn2c1Cn1cnnc1-c1cc(F)ccc1-2 | 1.7 | –
20 | Clc1ncn2c1Cn1nccc1-c1ccccc1-2 | 2 | –
21 | CCOC(=O)c1ncn2c1Cn1ncnc1-c1ccccc1-2 | 0.2 | –

Row | SMILES | Ki [1] [nM] | further results
22 | Clc1ncn2c1Cn1cnnc1-c1cc(Br)ccc1-2 | 27.4 | –
23 | Clc1ncn2c1Cc1cncnc1-c1ccccc1-2 | 15.6 | –
24 | CCOC(=O)c1ncn2c1Cc1cnc(C)nc1-c1cc(F)ccc1-2 | 4.6 | –
25 | C#Cc1ccc2c(c1)-c1nc(C)ncc1Cc1c(Cl)ncn1-2 | 133 | –
26 | Cc1cn2c(n1)-c1cc(Br)ccc1-n1cnc(C)c1C2 | 119 | –
27 | CCOC(=O)c1cn2c(n1)-c1cc(Br)ccc1-n1cnc(C)c1C2 | 5.4 | –
28 | CCOC(=O)c1ncn2c1Cn1cnnc1-c1cc(OC)ccc1-2 | 1.4 | inhibition (Rattus norvegicus [6]): Active
29 | N#Cc1ccc2c(c1)-c1nncn1Cc1c(Cl)ncn1-2 | 25.3 | –
30 | CCOC(=O)c1ncn2c1Cn1cnnc1-c1cc(Cl)ccc1-2 | 1.2 | –
31 | CCOC(=O)c1ncn2c1Cn1c(-c3ccccc3)nnc1-c1cc(OC)ccc1-2 | 53.8 | –
32 | Cc1ncn2c1Cn1c(C)cnc1-c1cc(Br)ccc1-2 | 11.7 | –
33 | Cc1ncn2c1Cn1nccc1-c1cc(Br)ccc1-2 | 49.1 | –
34 | CC(C)C(=O)c1ncn2c1Cn1cnnc1-c1cc(Br)ccc1-2 | 55.5 | –
35 | Cc1ncn2c1Cn1cc(CO)nc1-c1cc(Br)ccc1-2 | 8.1 | –
36 | Clc1ncn2c1Cc1cncnc1-c1cc(Br)ccc1-2 | 136 | –
37 | CCOC(=O)c1ncn2c1Cn1ncnc1-c1cc(C)ccc1-2 | 0.5 | –
38 | CCOC(=O)c1ncn2c1Cn1ncnc1-c1cc(Br)ccc1-2 | 0.3 | –
39 | Cc1ncn2c1Cn1ccnc1-c1cc(Br)ccc1-2 | 6.6 | –
40 | CCOC(=O)c1ncn2c1Cn1cnnc1-c1cc(Br)ccc1-2 | 0.6 | –
41 | C#Cc1ncn2c1Cn1cnnc1-c1cc(Br)ccc1-2 | 7.8 | –
42 | CCOC(=O)c1ncn2c1Cn1cnnc1-c1ccccc1-2 | 0.8 | –

Row | SMILES | Ki [1] [nM] | further results
43 | c1ccc2c(c1)-c1ncnn1Cc1cncn1-2 | 6.4 | CL (Liver microsomes [2]): 8000 µL/min/mg; CL (Liver microsomes [7]): 4000 µL/min/mg; Papp (in vitro): 2.87 ×10⁻⁶ cm/s; logD (physchem [3]): 0.73; solubility (physchem [4]): 231 µg/mL (≈ 1030 µM)
44 | CCOc1ncn2c1Cn1nccc1-c1cc(Cl)ccc1-2 | 1.4 | –
45 | Cc1ncn2c1Cn1cc(CN3CCCC3=O)nc1-c1cc(Br)ccc1-2 | 1.6 | –
46 | CCOC(=O)c1ncn2c1Cn1cnnc1-c1cc(C)ccc1-2 | 2.1 | –
47 | Cc1ncn2c1Cn1cnnc1-c1cc(Br)ccc1-2 | 150 | –
48 | CCOC(=O)c1ncn2c1Cc1cnc(-c3ccccc3)nc1-c1ccccc1-2 | 171 | –
49 | CCOC(=O)c1ncn2c1Cn1ncnc1-c1cc(NC(=O)C(C)C)ccc1-2 | 6.4 | –
50 | CCOC(=O)c1ncn2c1Cc1cnc(C)nc1-c1ccccc1-2 | 3.8 | –
51 | CCCc1ncc2c(n1)-c1ccccc1-n1cnc(C(=O)OCC)c1C2 | 5.5 | –
52 | CCOC(=O)c1ncn2c1Cn1cnnc1-c1cc(O)ccc1-2 | 0.6 | –
53 | CCOC(=O)c1ncn2c1Cn1ncnc1-c1cc(OC)ccc1-2 | 0.2 | –
54 | Cc1ncc2c(n1)-c1cc(Br)ccc1-n1cnc(Cl)c1C2 | 61 | –
55 | Brc1ccc2c(c1)-c1nncn1Cc1c(I)ncn1-2 | 7.8 | –
56 | CCOC(=O)c1ncn2c1Cn1ncnc1-c1cc(Cl)ccc1-2 | 0.2 | Papp (in vitro): 5.59 ×10⁻⁶ cm/s; logD (physchem [3]): 1.83; solubility (physchem [4]): 15 µg/mL (≈ 45.5 µM)
57 | C#Cc1ccc2c(c1)-c1nncn1Cc1c(Cl)ncn1-2 | 33.6 | –
58 | O=C(c1ncn2c1Cn1nccc1-c1ccccc1-2)C1CC1 | 1 | –
59 | c1ccc2c(c1)-c1ncncc1Cc1cncn1-2 | 410 | –
60 | CCOC(=O)c1ncn2c1Cn1c(Cc3ccccc3)nnc1-c1cc(Br)ccc1-2 | 19.1 | –
61 | CCOC(=O)c1ncn2c1Cc1cnc(C3CC3)nc1-c1cc(F)ccc1-2 | 7.8 | –
